These results are taken from patent US20210106579A1, “AMELIORATION OF COGNITIVE AND MOTOR DEFICITS ASSOCIATED WITH ALZHEIMER'S” (Neuralstem, Inc., priority 2018, published 2021).

Assay [1] relates to 5XFAD mice. Kind of assay: Barnes maze test (learning and memory retention) in Alzheimer's mouse model. Format: in vivo. The conditions noted are these: 30 mg/kg/day oral; for Memory retention (Barnes maze, retest after two days): 5XFAD mice. Here is the method:
(§1) A mouse model of Alzheimer's disease obtained from Jackson Laboratory was used in this study. […] Wild type control B6SJLF1/J mice were used. 5XFAD mice developed cognitive impairments at 4-5 months of age. Four groups of mice were employed, 15 mice per group, a wild type control administered vehicle; a wild type control administered NSI-189 as the phosphate salt administered orally at a level of 30 mg/kg per day and 5XFAD mice administered vehicle or administered NSI-189 as the phosphate salt orally also at 30 mg/kg/day (of the organic moiety). NSI-189 is of Formula 2 wherein R^1 is isoamyl. The treatment began at 15 weeks and was maintained for 12 weeks with measurements made after 6 weeks and 12 weeks.
The Barnes maze test is described in King, M. R., et al., J. Neurosc. Res. (supra). The Barnes maze consists of a brightly lit, circular, white platform with 20 holes with equidistant spacing around the periphery. An escape box is placed beneath one of the holes marked by a visual clue. Before testing begins, the mouse is placed in the center of the platform and allowed to explore until either it finds the escape box or five minutes has elapsed. The time to locate the escape box is then recorded at the end of the session, the mouse is left in, or placed in, the escape box for an additional minute.
This system is used to test both learning and memory. To test learning, the mouse was placed in the maze for five consecutive days to ascertain whether the time required to find the escape box was decreased, which would indicate learning. To test memory retention, a subsequent period of two days was allowed to elapse and the mouse was retested to ascertain whether a decreased time in finding the escape box was found.

Assay [2] has as its system 5XFAD mice. Kind of assay: Anxiety: time spent on the edge of an inverted beaker. The conditions noted are these: FIG. 8. Format: in vivo, mouse. Here is the method:
as §1
The time spent on the edge of an inverted beaker is used to assess anxiety, and the lower the time the more the anxious the mouse.

In assay [3] the test system is 5XFAD mice. Briefly: Object recognition test (short term memory) in Alzheimer's mouse model. To be noted: 30 mg/kg/day oral, 6 weeks of treatment, FIG. 5. Format: in vivo. Here is the method: as §1
The object recognition test is also described in King, M. R., et al. (supra). This is based on a concept that the mice will explore a novel object for a longer time than a familiar object. Two identical objects are placed equal distance from each other and from the side of a transparent box and mice are given 10 minutes to achieve 30 seconds of exploration of the two objects after which they are placed back in their home cage. […] The time that the mouse spends exploring the familiar and novel object is recorded and mice with normal cognitive function typically spend more time with a novel object.

The test system of assay [4] is 5XFAD mice. Briefly: Learning Rota-Rod test (motor skills and learning) in Alzheimer's mouse model. Format: in vivo. The conditions noted are these: 30 mg/kg/day oral. Here is the method:
as §1
The Rota-Rod test also is described in King, et al. (supra). Rota-Rod is marketed by Stoelting Company, Wood Dale, Ill. This is a rod that rotates accelerating from 4-40 rpm over five minutes and the amount of time spent on the rod before loss of balance is recorded over three trials. This measures both motor skills, and if conducted over a period of days, it measures learning.

Structures are written as SMILES.

On to `CC(C)CCNc1ncccc1C(=O)N1CCN(Cc2ccccc2)CC1` [NSI-189], for which the “Learning (Barnes maze)” value in the assay on 5XFAD mice [1] (5XFAD mice (7 month old), 12 weeks of treatment, FIG. 3) was “amelioration of worsened learning deficit”. Moreover, the “Memory retention (Barnes maze, retest after two days)” value in the assay with 5XFAD mice [1] (6 weeks of treatment, FIG. 2) is reported as “improved memory”; in the assay with 5XFAD mice [1] (12 weeks of treatment, FIG. 4) it was “improvement of memory retention”. Besides, in the assay on 5XFAD mice [1] (control and 5XFAD mice, 6 weeks of treatment, FIG. 1), the “Learning (Barnes maze, time to find escape box over five consecutive days)” value was “appeared not to affect the learning curve of either group”. Moreover, the “Anxiety (time spent on the edge of an inverted beaker)” value in the assay with 5XFAD mice [2] (control and 5XFAD mice at 7 months (12 weeks of treatment)) is given as “partially reduced the anxiety in both”; in the assay on 5XFAD mice [2] (control and 5XFAD mice at five months (6 weeks of treatment)) it was “did not affect either group”. Further, the “Recognition index (object recognition test)” value in the assay with 5XFAD mice [3] is “improved the recognition index of 5XFAD mice”. Moreover, the “Motor skill at the beginning and learning (time on Rota-Rod)” value with 5XFAD mice [4] (5XFAD mice, 6 weeks of treatment, FIG. 7) is “improves both the motor skill exhibited at the beginning and learning even over control”. Moreover, the “Behavior of control mice” value in the assay with 5XFAD mice [4] (wild type control mice, statement covers the behavioural tests) was “In no case did NSI-189 affect the behavior of control mice”.
